Results as given in ChEMBL document CHEMBL4308841, “Synthesis, in vitro antiproliferative activity, and kinase inhibitory effects of pyrazole-containing diarylureas and diarylamides” (Eur J Med Chem, 2018).

How the values were obtained:
T47D = test: Growth inhibition of human T47D cells incubated for 48 hrs by sulforhodamine B assay; format: functional, cell-based
MCF7 = test: Growth inhibition of human MCF7 cells assessed as cell growth at 10 uM incubated for 48 hrs by sulforhodamine B assay relative to control; format: functional; settings: MCF7, 48 h, read-out: Activity
DU-145 = test: Growth inhibition of human DU145 cells assessed as cell growth at 10 uM incubated for 48 hrs by sulforhodamine B assay relative to control; format: functional; settings: DU-145, 48 h, read-out: Activity
786-0 = test: Growth inhibition of human 786-0 cells assessed as cell growth at 10 uM incubated for 48 hrs by sulforhodamine B assay relative to control; format: functional; settings: 786-0, 48 h, read-out: Activity
SK-MEL-5 = test: Growth inhibition of human SK-MEL-5 cells assessed as cell growth at 10 uM incubated for 48 hrs by sulforhodamine B assay relative to control; format: functional; settings: SK-MEL-5, 48 h, read-out: Activity
HCT-116 [1] = test: Growth inhibition of human HCT116 cells assessed as cell growth at 0.01 uM incubated for 48 hrs by sulforhodamine B assay relative to control; format: functional; settings: HCT-116, 48 h, read-out: Activity
UACC-62 = test: Growth inhibition of human UACC62 cells assessed as cell growth at 0.01 uM incubated for 48 hrs by sulforhodamine B assay relative to control; format: functional; settings: UACC-62, 48 h, read-out: Activity
A549 = test: Growth inhibition of human A549/ATCC cells assessed as cell growth at 10 uM incubated for 48 hrs by sulforhodamine B assay relative to control; format: functional; settings: A549, 48 h, read-out: Activity
A498 = test: Growth inhibition of human A498 cells assessed as cell growth at 10 uM incubated for 48 hrs by sulforhodamine B assay relative to control; format: functional; settings: A498, 48 h, read-out: Activity
CCRF-CEM = test: Growth inhibition of human CCRF-CEM cells assessed as cell growth at 10 uM incubated for 48 hrs by sulforhodamine B assay relative to control; format: functional; settings: read-out: Activity
NCI-H23 = test: Growth inhibition of human NCI-H23 cells assessed as cell growth at 10 uM incubated for 48 hrs by sulforhodamine B assay relative to control; format: functional; settings: NCI-H23, 48 h, read-out: Activity
Malme-3M = test: Growth inhibition of human MALME-3M cells assessed as cell growth at 10 uM incubated for 48 hrs by sulforhodamine B assay relative to control; format: functional; settings: read-out: Activity
SR = test: Growth inhibition of human SR cells incubated for 48 hrs by sulforhodamine B assay; format: functional, cell-based
SF-268 = test: Growth inhibition of human SF268 cells assessed as cell growth at 0.1 uM incubated for 48 hrs by sulforhodamine B assay relative to control; format: functional; settings: SF-268, 48 h, read-out: Activity
NCI-H322M = test: Growth inhibition of human NCI-H322M cells assessed as cell growth at 10 uM incubated for 48 hrs by sulforhodamine B assay relative to control; format: functional; settings: read-out: Activity
SNB-75 = test: Growth inhibition of human SNB75 cells assessed as cell growth at 0.1 uM incubated for 48 hrs by sulforhodamine B assay relative to control; format: functional; settings: SNB-75, 48 h, read-out: Activity
SN12C = test: Growth inhibition of human SN12C cells assessed as cell growth at 10 uM incubated for 48 hrs by sulforhodamine B assay relative to control; format: functional; settings: read-out: Activity
Hs-578T = test: Growth inhibition of human Hs578T cells assessed as cell growth at 0.1 uM incubated for 48 hrs by sulforhodamine B assay relative to control; format: functional; settings: read-out: Activity
HCT-116 [2] = test: Growth inhibition of human HCT116 cells assessed as cell growth at 0.1 uM incubated for 48 hrs by sulforhodamine B assay relative to control; format: functional; settings: HCT-116, 48 h, read-out: Activity
HOP-62 = test: Growth inhibition of human HOP62 cells assessed as cell growth at 10 uM incubated for 48 hrs by sulforhodamine B assay relative to control; format: functional; settings: HOP-62, 48 h, read-out: Activity
NCI/ADR-RES = test: Growth inhibition of human NCI/ADR-RES cells assessed as cell growth at 10 uM incubated for 48 hrs by sulforhodamine B assay relative to control; format: functional; settings: read-out: Activity
PC-3 = test: Growth inhibition of human PC3 cells assessed as cell growth at 10 uM incubated for 48 hrs by sulforhodamine B assay relative to control; format: functional; settings: PC-3, 48 h, read-out: Activity
NCI-H522 = test: Growth inhibition of human NCI-H522 cells incubated for 48 hrs by sulforhodamine B assay; format: functional, cell-based; settings: NCI-H522, 48 h
HCT-15 = test: Growth inhibition of human HCT15 cells assessed as cell growth at 10 uM incubated for 48 hrs by sulforhodamine B assay relative to control; format: functional; settings: HCT-15, 48 h, read-out: Activity
MDA-MB-435 = test: Growth inhibition of human MDA-MB-435 cells assessed as cell growth at 100 uM incubated for 48 hrs by sulforhodamine B assay relative to control; format: functional; settings: MDA-MB-435, 48 h, read-out: Activity
UACC-257 = test: Growth inhibition of human UACC257 cells assessed as cell growth at 10 uM incubated for 48 hrs by sulforhodamine B assay relative to control; format: functional; settings: UACC-257, 48 h, read-out: Activity
SK-MEL-28 = test: Growth inhibition of human SK-MEL-28 cells assessed as cell growth at 10 uM incubated for 48 hrs by sulforhodamine B assay relative to control; format: functional; settings: SK-MEL-28, 48 h, read-out: Activity
COLO 205 = test: Growth inhibition of human COLO205 cells assessed as cell growth at 10 uM incubated for 48 hrs by sulforhodamine B assay relative to control; format: functional; settings: COLO 205, 48 h, read-out: Activity
MOLT-4 = test: Growth inhibition of human MOLT4 cells assessed as cell growth at 10 uM incubated for 48 hrs by sulforhodamine B assay relative to control; format: functional; settings: MOLT-4, 48 h, read-out: Activity
UO-31 [3] = test: Growth inhibition of human UO31 cells assessed as cell growth at 0.01 uM incubated for 48 hrs by sulforhodamine B assay relative to control; format: functional; settings: UO-31, 48 h, read-out: Activity
UO-31 [4] = test: Growth inhibition of human UO31 cells assessed as cell growth at 10 uM incubated for 48 hrs by sulforhodamine B assay relative to control; format: functional; settings: UO-31, 48 h, read-out: Activity
OVCAR-8 = test: Growth inhibition of human OVCAR8 cells assessed as cell growth at 10 uM incubated for 48 hrs by sulforhodamine B assay relative to control; format: functional; settings: OVCAR-8, 48 h, read-out: Activity
[5] = read-out: LC50 (the source's name)
[6] = read-out: pLC50 (the source's name) (converted)

## COc1cc(Cl)cc(-c2nn(-c3cccc(NC(=O)Nc4cccc(C(F)(F)F)c4)c3)cc2-c2ccncc2)c1
T47D; read-out: GI50
  GI50: 1.23 µM
T47D; [5]
  CC50: > 100 µM
T47D; read-out: TGI
  TGI: 59.9 µM
T47D; read-out: pGI50 (converted)
  GI50: 1.23 µM
T47D; [6]
  CC50: > 100 µM
T47D; read-out: pTGI (converted)
  TGI: 6.92 µM
MCF7
  growth at 10 µM: 0.3%
DU-145
  growth at 10 µM: 15.9%
786-0
  growth at 10 µM: 13.2%
SK-MEL-5
  growth at 10 µM: 5.3%
HCT-116 [1]
  growth at 0.01 µM: 101%
UACC-62
  growth at 0.01 µM: 96%
A549
  growth at 10 µM: 8.08%
A498
  growth at 10 µM: -6.74%
CCRF-CEM
  growth at 10 µM: 3.34%
NCI-H23
  growth at 10 µM: -5.1%
Malme-3M
  growth at 10 µM: -16.6%
SR; read-out: GI50
  GI50: 1.14 µM
SR; [5]
  CC50: > 100 µM
SR; read-out: TGI
  TGI: 43.9 µM
SR; read-out: pGI50 (converted)
  GI50: 1.15 µM
SR; [6]
  CC50: > 100 µM
SR; read-out: pTGI (converted)
  TGI: 4.37 µM
SF-268
  growth at 0.1 µM: 94%
NCI-H322M
  growth at 10 µM: 26.2%
SNB-75
  growth at 0.1 µM: 55%
SN12C
  growth at 10 µM: 13.9%
Hs-578T
  growth at 0.1 µM: 93%
HCT-116 [2]
  growth at 0.1 µM: 99%
HOP-62
  growth at 10 µM: 15.5%
NCI/ADR-RES
  growth at 10 µM: 3.58%
PC-3
  growth at 10 µM: -9.92%
NCI-H522; read-out: GI50
  GI50: 0.445 µM
NCI-H522; [5]
  CC50: 10 µM
NCI-H522; read-out: TGI
  TGI: 25.1 µM
NCI-H522; [6]
  CC50: 10.2 µM
HCT-15
  growth at 10 µM: 7.83%
MDA-MB-435
  growth at 100 µM: -74%
UACC-257
  growth at 10 µM: -11.7%
SK-MEL-28
  growth at 10 µM: 14.1%
COLO 205
  growth at 10 µM: -31.2%
MOLT-4
  growth at 10 µM: -9.16%
UO-31 [3]
  growth at 0.01 µM: 91%
UO-31 [4]
  growth at 10 µM: -4.59%
OVCAR-8
  growth at 10 µM: -12.3%

## O=C(Nc1cccc(-n2cc(-c3ccncc3)c(-c3cc(O)cc(Cl)c3)n2)c1)Nc1ccc(Cl)c(Cl)c1
T47D; read-out: GI50
  GI50: 2.32 µM
T47D; [5]
  CC50: > 100 µM
T47D; read-out: TGI
  TGI: 61.7 µM
T47D; read-out: pGI50 (converted)
  GI50: 2.4 µM
T47D; [6]
  CC50: > 100 µM
T47D; read-out: pTGI (converted)
  TGI: 6.17 µM
MCF7
  growth at 10 µM: 2.74%
DU-145
  growth at 10 µM: -15.1%
786-0
  growth at 10 µM: -72.1%
SK-MEL-5
  growth at 10 µM: -53%
HCT-116 [1]
  growth at 0.01 µM: 101%
UACC-62
  growth at 0.01 µM: 96%
A549
  growth at 10 µM: 3.96%
A498
  growth at 10 µM: -2.98%
CCRF-CEM
  growth at 10 µM: 4.11%
NCI-H23
  growth at 10 µM: -20.4%
Malme-3M
  growth at 10 µM: -35.1%
SR; read-out: GI50
  GI50: 1.3 µM
SR; [5]
  CC50: > 100 µM
SR; read-out: TGI
  TGI: 42.4 µM
SR; read-out: pGI50 (converted)
  GI50: 1.32 µM
SR; [6]
  CC50: > 100 µM
SR; read-out: pTGI (converted)
  TGI: 4.27 µM
SF-268
  growth at 0.1 µM: 98%
NCI-H322M
  growth at 10 µM: 19.5%
SNB-75
  growth at 0.1 µM: 52%
SN12C
  growth at 10 µM: 14.9%
Hs-578T
  growth at 0.1 µM: 92%
HCT-116 [2]
  growth at 0.1 µM: 102%
HOP-62
  growth at 10 µM: -44.2%
NCI/ADR-RES
  growth at 10 µM: 12.8%
PC-3
  growth at 10 µM: -1.66%
NCI-H522; read-out: GI50
  GI50: 1.1 µM
NCI-H522; [5]
  CC50: 5.99 µM
NCI-H522; read-out: TGI
  TGI: 31.4 µM
NCI-H522; read-out: pGI50 (converted)
  GI50: 1.1 µM
NCI-H522; [6]
  CC50: 8.91 µM
NCI-H522; read-out: pTGI (converted)
  TGI: 3.16 µM
HCT-15
  growth at 10 µM: -25.3%
MDA-MB-435
  growth at 100 µM: -45%
UACC-257
  growth at 10 µM: -70.7%
SK-MEL-28
  growth at 10 µM: -50.9%
COLO 205
  growth at 10 µM: 22.4%
MOLT-4
  growth at 10 µM: -27.1%
UO-31 [3]
  growth at 0.01 µM: 93%
UO-31 [4]
  growth at 10 µM: -41.2%
OVCAR-8
  growth at 10 µM: -14.8%
